Results: patent publication US20230035491A1, “METHODS, KITS AND COMPOSITIONS FOR REDUCING CARDIOTOXICITY ASSOCIATED WITH CANCER THERAPIES” (Baruch S. Blumberg Institute, priority 2019, published 2023)
Counter-ions that a name gives are not always drawn.

How the values were obtained:
iPSC-CM = experiment: CellTiter-Glo luminescent cell viability assay, iPSC-derived cardiomyocytes; format: cell-based; conditions: 5 μM Dox plus 50 μM compound vs Dox alone
[1] = system: breast cancer cell lines (BCa); experiment: CellTiter-Glo luminescent cell viability assay, breast cancer cell lines; format: cell-based; conditions: 5 μM Dox plus 50 μM compound vs Dox alone
[2] = system: Isolated canine cardiac myocytes; experiment: DOX-induced apoptosis of isolated canine cardiac myocytes; format: cell-based; conditions: 24 hours
[3] = system: breast cancer cell line Py8119; experiment: Py8119 cell proliferation by cell number using methylene blue; format: cell-based; conditions: Ranolazine 0.156 um to 20 um, alone or with 5 uM Dox
Experimental: The breast cancer cell line Py8119 was treated with either increasing doses of Ranolazine (0.156 um to 20 um) or with the addition of doxorubicin. (5 uM Dox). Cell proliferation was established by cell number using methylene blue.

CCR5, CCL3, CCL5 = system: CCR5, CCL3, CCL5; set-up: species or system human
Experimental: FIGS. 4a through 4f show myocardial biopsies from patients with either doxorubicin-induced cardiomyopathy or donor control heart. […] Samples were obtained from the Sydney heart bank. Biopsies were obtained at the time of transplant for the doxorubicin affected hearts. […] Heart biopsies were fixed in paraformaldehyde overnight prior to being embedded in paraffin blocks. Blocks were sectioned at […]. After deparaffinization and rehydration, antigen retrieval was performed in Tris buffer (pH 9) on the resulting sections. After blocking, sections were incubated with an antibody against CCR5, CCL3, or CCL5. Anti-CCR5 antibody binding was visualized using an HRP-conjugated second antibody and NOVA red substrate. Haematoxylin was used for nuclear visualization.

[4] = Chronic DOX model, cardiac function by echocardiography; format: in vivo; conditions: female mice, DOX 8×3 mg/kg over 2 weeks; 6 and 8 weeks after first injections; vs saline
Experimental: Female mice (n=10) were treated with a chronic regimen of DOX (8×3 mg/kg over 2 weeks) and cardiac function assessed by echocardiography at 6 and 8 weeks after the first injections. Echocardiographic imaging was employed using the Vevo 2100 preclinical high-frequency ultrasound system (Visualsonics, Toronto, Canada). M-mode analysis of the resulting images provided indices of cardiac systolic and diastolic function. For FIG. 5a, the ejection fraction is the percentage of the left ventricular volume expelled with each cardiac contraction. For FIG. 5b, the ESD is the […]. For FIG. 5c, the ESV is the end systolic volume or the volume of the heart at the end of contraction (systole). For FIG. 5d, the PWs is the posterior wall thickness at end of systole or the thickness of the myocardium at maximal ventricular contraction. All data are compared to the saline treated group and represent mean+/−SEM, p<0.01.

CCR5 = CCR5 immunostaining of myocardium after chronic regimen of DOX; format: in vivo, mice; conditions: DOX 8×3 mg/kg IP, excised after 8 weeks; vs saline
Experimental: Mice were treated with a chronic regimen of DOX (8×3 mg/kg, IP, n=12) or saline (n=10), excised after 8 weeks and fixed in paraformaldehyde overnight before being embedded in paraffin blocks. Blocks were sectioned (5 μm) and, after deparaffinization and rehydration, antigen retrieval was performed in Tris buffer (pH 9). After blocking, sections were incubated with an antibody against CCR5. Anti-CCR5 antibody binding was visualized using an HRP-conjugated second antibody and Nova red substitute. Haematoxylin was used for nuclear visualization.

miRNAs targeting CCR5 = experiment: miRNA expression profiles of hearts after acute doxorubicin regimen (Illumina miRNA arrays); format: in vivo, rats; conditions: acute doxorubicin 1x 20 mg/kg IP, n=6, vs saline
Source text: In silico analysis using the miRdb database (www.mirdb.org) identified a number of miRNAs that could potentially regulate translation of CCR5 in rats (see X-axis for identification of individual miRNAs). […] Data rare represented as fold change to saline treated rats and shown as mean+/−SEM, * p<0.01.

[5] = system: BCa cells (SUM-159, FC-IBC-02, MDA-MB-231); experiment: CCR5 expression in BCa cells grown in doxorubicin, flow cytometry; format: cell-based; conditions: 10-40 nmol/L doxorubicin for up to 80 days vs untreated
Experimental: BCa cells were grown in vitro under standard conditions for control (“solid bar”) or DOX treatment (“non-solid bar”) for up to 80 days. SUM-159 cells were grown in 10 nmol/L doxorubicin for 1 month, then 20 nmol/L doxorubicin for 1 month, and then 40 nmol/L doxorubicin for 3 weeks, prior to analysis. FC-IBC-02 cells were grown in 40 nmol/L doxorubicin for 1 month prior to analysis. MDA-MB-231 cells were grown in 20 nmol/L doxorubicin for 1 month then 40 nmol/L doxorubicin for 3 weeks prior to analysis. At the conclusion of the 80 days, surviving cells were harvested and pelleted by centrifugation. Cells were suspended in PBS containing normal mouse IgG and rat anti-mouse Fcg III/II receptor antibody to block nonspecific binding. Cells were exposed allophycocyanin (APC)-labeled CCR5 antibody for 1 hour at 4° C. After washing, analysis of CCR5 expression on cell was conducted on FACSCalibur flow cytometer (BD Biosciences). The data was analyzed with FlowJo software (Tree Star, Inc.). […] Data are % cells expressing CCR5 (mean of n=3 determinations).

cardiac progenitor iPSCs [6] = experiment: DOX killing and CCR5 expression in cardiac progenitor iPSCs, propidium iodide / flow cytometry; format: cell-based
Experimental: Some cells were suspended in PBS containing normal mouse IgG and rat anti-mouse Fcg III/II receptor antibody. Cells were exposed allophycocyanin (APC)-labeled CCR5 antibody for 1 hour at 4° C. After washing, analysis of CCR5 expression on cell was conducted on FACSCalibur flow cytometer (BD Biosciences). The data was analyzed with FlowJo software (Tree Star, Inc.). […] As such, CCR5+ cardiac progenitor cells are more prone to DOX induced cell death from than their CCR5− counterparts.

[7] = Survival of doxorubicin treated mice over 90 days; format: in vivo
Source text: Survival was documented over the first 90 days after the beginning of treatment.

[8] = system: CCR5 ligands CCL3, CCL5, CCL4; conditions: doxorubicin treated patients (n=7) vs donor controls (n=9); cited from earlier work
[9] = system: CCR5, CCL3/MIP-la, CCL5/RANTES; conditions: chronic or acute DOX regimen vs saline; cited from earlier work
SUM-159 cells = experiment: BCa lung metastasis after intracardiac injection of SUM-159 Luc2-eGFP cells, bioluminescence imaging; format: in vivo, NOD/SCID mice; conditions: Maraviroc 8 mg/kg every 12 hr oral gavage vs vehicle; n=6
Experimental: SUM-159 cells expressing Luc2-eGFP were introduced by intracardiac injection into 8-week old female NOD/SCID mice at 2×10^5 cells/mouse). […] Bioluminescence imaging was performed after intraperitoneal (i.p.) injection with 200 μL of D-luciferin at 30 mg/ml.

cardiac progenitor iPSCs [10] = experiment: Cell death of cardiac precursor iPSCs with saline or DOX and maraviroc, propidium iodide; format: cell-based; conditions: 1 μM DOX plus maraviroc (0-100 m), 24 hours, n=3
Source text: (mean+/−SD, n=3). […] Data represents mean+/−SD (n=3).

[11] = Doxorubicin induced cardiac dysfunction, echocardiography 8 weeks after final dose; format: in vivo, mice; conditions: doxorubicin 8×3 mg/kg over 2 weeks with maraviroc 16 mg/kg twice daily gavage vs vehicle; n=15 per group
Source text: A representative example of the echocardiogram is shown. […] Indices include Left Ventricular End Systolic Dimension (LVESD) and Volume (LVESV), which are the diameter and volume of the left ventricle at the end of systole respectively, ejection fraction (EF) which is the percentage of the left ventricular volume expelled with each cardiac contraction (%), and fractional shortening (FS) which is the proportion of diastolic dimension lost in systole (%).

MDA-MB-231 BCa cells = conditions: Veliparib plus maraviroc vs vehicle, 72 hours, n=3
Experimental: After 24 hours, cells were harvested and pelleted by centrifugation. For cell death, cells were incubated with RNase A and propidium iodide to highlight DNA content and nuclear morphology. Cell death was identified by counting cells with nuclei that were smaller and with less DNA content compared to normal diploid cells. […] (mean+/−SD, n=3). […] MDA-MB-231 BCa cells were plated onto 96-well plates, allowed to adhere overnight, then treated with drug for 72 hours. Cells were incubated with DNA damaging agent (Veliparib) and either vehicle or maraviroc. A measurement of cell number was made at both the time of treatment (time 0) and after drug treatment (time 72) using CTG reagent (Promega, Madison, Wis.) to allow for calculation of percent growth inhibition and the dose required to inhibit growth rate by 50% (GR50). […] Data represents mean+/−SD (n=3).

[12] = anthracycline cardiotoxicity myocardium (n=2) vs normal donor heart (n=2)

## COc1ccccc1OCC(O)CN1CCN(CC(=O)Nc2c(C)cccc2C)CC1 (centres unmarked) [Ranolazine dihydrochloride]
iPSC-CM
  survival of iPSC-CM: improved survival
[1]
  survival of BCa cells: reduced survival
[2]; pretreated with ranolazine dihydrochloride 50 μM, then DOX 2 μM, n=3
  DOX-induced cardiac toxicity (levels of apoptosis): reduces DOX-induced cardiac toxicity

## COc1ccccc1OCC(O)CN1CCN(CC(=O)Nc2c(C)cccc2C)CC1 (centres unmarked) [Ranolazine]
[3]
  breast cancer cell killing (cell proliferation): enhance breast cancer cell killing in a dose dependent manner

## COc1cccc2c1C(=O)c1c(O)c3c(c(O)c1C2=O)C[C@@](O)(C(=O)CO)C[C@@H]3O[C@H]1C[C@H](N)[C@H](O)[C@H](C)O1 [doxorubicin]
CCR5, CCL3, CCL5
  Average ejection fraction (EF): 25-35%
CCR5, CCL3, CCL5; [12]
  CCL3 expression in myocardium: increased
  CCL5 expression in myocardium: increased
  CCR5 expression in myocardium: increased
[4]
  cardiac function (ejection fraction, ESD, ESV, PWs): induction of stable mild heart failure
CCR5
  CCR5 expression in the myocardium: increased
miRNAs targeting CCR5
  miRNAs targeting CCR5 with decreased expression in the myocardium: 8/11
[5]
  CCR5 expression (% cells expressing CCR5): significantly increased
Cardiac progenitor iPSCs [6]; DOX 0-10 m, 24 hours, n=5
  cell death: promotes cell death in a dose dependent manner
Cardiac progenitor iPSCs [6]; DOX 24 hours, n=3
  CCR5 expression: increases CCR5 expression
[2]; DOX 10 μM, no pretreatment
  proportion of DOX-induced apoptotic cell death: 17%
[7]; doxorubicin 8x 3 mg/kg over 2 weeks with vehicle control
  survival over first 90 days: 7/15
[8]
  CCL3 mRNA expression in the heart: increased mRNA expression
  CCL5 mRNA expression in the heart: increased mRNA expression
[9]
  CCL3 mRNA expression in the heart: increased mRNA expression
  CCL5 mRNA expression in the heart: increased mRNA expression

## maraviroc
SUM-159 cells
  BCa lung metastasis: reduced
Cardiac progenitor iPSCs [10]
  DOX induced cell death: significantly, and dose dependently, rescues DOX induced cell death
iPSC-CM
  survival of iPSC-CM: improved survival
[1]
  survival of BCa cells: reduced survival
[2]; pretreated with maraviroc 100 μM, then DOX 10 μM
  proportion of DOX-induced apoptotic cell death: 3%
[7]; doxorubicin 8x 3 mg/kg over 2 weeks with maraviroc 16 mg/kg twice daily gavage
  survival over first 90 days: 10/15
[7]; doxorubicin with maraviroc vs doxorubicin with vehicle
  enhanced survival over the vehicle in DOX treated mice: 2.77 fold
[11]
  doxorubicin induced cardiac dysfunction (LVESD, LVESV, EF, FS): prevents doxorubicin induced cardiac dysfunction
MDA-MB-231 BCa cells
  BCa cell killing in combination with veliparib: synergistically promotes BCa cell killing
